Data: PubChem BioAssay AID1963844 (Molecular Pharmacology Branch, DTP, NCI, 2024)

Tested on: 422866-222-R5-J1-PDC complex spheroid viability
Assay: Anticancer human tumor 422866-222-R5-J1-PDC patient-derived pancreatic adenocarcinoma cell line growth inhibition [POLQ]
Conditions: for IC50: curve of first compound; for viability, T/C: stronger effect = lower value
Procedure: Multicellular complex tumor spheroid response to Polymerase (POL) inhibitors (novobiocin, ART-558, RP6685) in combination with a variety of drugs and investigational agents in selected tumor cell lines
The POL inhibitors (novobiocin, ART-558, and RP6685) were evaluated both individually and in combination with standard of care and investigational anticancer small molecules within a complex spheroid model of solid tumors. . Complex spheroids include a stromal component modeled by human endothelial cells (HUVEC) and fibroblasts modeled by human mesenchymal stem cells (MSCs). The concentration ranges selected for each drug and investigational agent were based upon clinically achievable concentrations if the clinical Cmax of the agent was known.
Compounds. The drugs and investigational agents: novobiocin (NSC847541), ART-558 (NSC835418), RP-6685 (NSC848927), peposertib (NSC802822), ceralasertib (NSC780249), elimusertib (NSC800525), camonsertib (NSC841442), AZD-1390 (NSC803789), olaparib (NSC753686), talazoparib (NSC767125), rucaparib (NSC756644), sotorasib (NSC818433), MRTX-1133 (NSC836407), SN-38 (NSC673596), topotecan (NSC609699), epotoside (NSC141540), doxorubicin (NSC123127), gemcitabine (NSC613327), 5-fluorouracil (NSC19893), paclitaxel (NSC125973), vemurafenib (NSC761431), MSA-2 (NSC828583), SN-011 (NSC837082), adavosertib (NSC754352), prexasertib (NSC758257), carboplatin (NSC241240) and oxaliplatin (NSC266046), were obtained from the National Cancer Institute (NCI) Developmental Therapeutics Program Chemical Repository (21). The FDA-approved anticancer drug set is available from the Developmental Therapeutics Program at https://dtp.cancer.gov/organization/dscb/obtaining/. […] The stock solutions were prepared in dimethyl sulfoxide (DMSO, Sigma-Aldrich, St. Louis, MO, cat. D2650), except for the platinum compounds which were prepared in saline (Quality Biological, Gaithersburg, MD, cat. 114-055-101), at 800-fold the tested concentration and stored at -70 degrees C prior to their use. All drugs and investigational agents were tested over a range starting from a high concentration at or near the clinical Cmax and decreasing in half-log increments. If the clinical Cmax for an agent had not been determined, the highest concentration tested was 10 microM, except for SN-38, which was tested at a high concentration of 1 microM.
Cell Culture. All cells were maintained in an incubator at 37 degrees C and 5% CO2 with 95% humidity. The PDC lines were cultured according to standard operating procedures established by the NCI PDMR (https://pdmr.cancer.gov). Table 3 of the manuscript, lists the cell lines along with the number of the three cell types plated to form the mct-spheroids and media for tumor cell growth. After thawing, all PDC lines, except 997537-175-T-J1-PDC and 415267-285-R-J2-PDC, were cultured in Matrigel-coated flasks prepared with a working solution of 1X Ham's F-12 nutrient mix, without supplementation (Thermo Fisher Scientific, cat. 11765054), 100 U/mL penicillin-streptomycin (Thermo Fisher Scientific, cat. 15140122), and 2.5% Matrigel (Corning Inc., Corning, NY, cat. 354248) for the first three passages. The two PDC lines 997537-175-T-J1-PDC and 415267-285-R-J2-PDC were cultured on uncoated flasks. The 857933-349-R-J2-PDC line was cultured in 6C/Colon 1B media containing advanced DMEM/F-12 (Thermo Fisher Scientific, cat. 12634028), 10 mM HEPES (Thermo Fisher Scientific, cat. 15630080), 1X GlutaMAX supplement (Thermo Fisher Scientific, cat. 35050061), 0.1 mg/mL primocin (InvivoGen, San Diego, CA, cat. ant-pm-2), 10% defined fetal bovine serum, heat inactivated (HyClone Laboratories Inc., Logan, UT, cat. SH30070.03HI), 50% L-WRN conditioned media (ATCC, cat. CRL-3276), 1.25 mM N-Acetyl-L-cysteine (Sigma-Aldrich, cat. A9165), 10 mM nicotinamide (Sigma-Aldrich, cat. N0636), 1X B-27 supplement (Thermo Fisher Scientific, cat. 17504044), 1X N-2 supplement (Thermo Fisher Scientific, cat. […]
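Further: spheroids exposed to compounds for one week before readout.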
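Wherever viability, T/C is given: percent of DMSO vehicle wells luminescence so 100% = untreated viability.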

SMILES: CC(C)n1c(=O)n(C)c2cnc3cc(F)c(-c4ccc(OCCCN5CCCCC5)nc4)cc3c21 + Cc1cccc(N(C)C(=O)C2C(O)CCN2c2nc(C)cc(C(F)(F)F)c2C#N)c1
- IC50 (second compound 0.0316 µM): > 10 µM
- IC50 (second compound 0.1 µM): > 10 µM
- IC50 (second compound 0.316 µM): > 10 µM
- IC50 (second compound 1 µM): > 10 µM
- IC50 (second compound 3.16 µM): > 10 µM
- IC50 (second compound 10 µM): > 10 µM
- viability, T/C (second compound 0.0316 µM, first compound 0.0316 µM): 105%
- viability, T/C (second compound 0.0316 µM, first compound 0.1 µM): 101%
- viability, T/C (second compound 0.0316 µM, first compound 0.316 µM): 105%
- viability, T/C (second compound 0.0316 µM, first compound 1 µM): 124%
- viability, T/C (second compound 0.0316 µM, first compound 3.16 µM): 106%
- viability, T/C (second compound 0.0316 µM, first compound 10 µM): 64.9%
- viability, T/C (second compound 0.1 µM, first compound 0.0316 µM): 91.6%
- viability, T/C (second compound 0.1 µM, first compound 0.1 µM): 108%
- viability, T/C (second compound 0.1 µM, first compound 0.316 µM): 106%
- viability, T/C (second compound 0.1 µM, first compound 1 µM): 115%
- viability, T/C (second compound 0.1 µM, first compound 3.16 µM): 96.3%
- viability, T/C (second compound 0.1 µM, first compound 10 µM): 60.4%
- viability, T/C (second compound 0.316 µM, first compound 0.0316 µM): 117%
- viability, T/C (second compound 0.316 µM, first compound 0.1 µM): 101%
- viability, T/C (second compound 0.316 µM, first compound 0.316 µM): 104%
- viability, T/C (second compound 0.316 µM, first compound 1 µM): 114%
- viability, T/C (second compound 0.316 µM, first compound 3.16 µM): 79.5%
- viability, T/C (second compound 0.316 µM, first compound 10 µM): 67%
- viability, T/C (second compound 1 µM, first compound 0.0316 µM): 100%
- viability, T/C (second compound 1 µM, first compound 0.1 µM): 112%
- viability, T/C (second compound 1 µM, first compound 0.316 µM): 96.2%
- viability, T/C (second compound 1 µM, first compound 1 µM): 111%
- viability, T/C (second compound 1 µM, first compound 3.16 µM): 98%
- viability, T/C (second compound 1 µM, first compound 10 µM): 59.5%
- viability, T/C (second compound 3.16 µM, first compound 0.0316 µM): 115%
- viability, T/C (second compound 3.16 µM, first compound 0.1 µM): 115%
- viability, T/C (second compound 3.16 µM, first compound 0.316 µM): 96.9%
- viability, T/C (second compound 3.16 µM, first compound 1 µM): 118%
- viability, T/C (second compound 3.16 µM, first compound 3.16 µM): 79.9%
- viability, T/C (second compound 3.16 µM, first compound 10 µM): 66.9%
- viability, T/C (second compound 10 µM, first compound 0.0316 µM): 115%
- viability, T/C (second compound 10 µM, first compound 0.1 µM): 90.5%
- viability, T/C (second compound 10 µM, first compound 0.316 µM): 94.5%
- viability, T/C (second compound 10 µM, first compound 1 µM): 90.7%
- viability, T/C (second compound 10 µM, first compound 3.16 µM): 80.5%
- viability, T/C (second compound 10 µM, first compound 10 µM): 60.3%
